Experimental findings from ChEMBL document CHEMBL1150410, “Identification of MMP-12 inhibitors by using biosensor-based screening of a fragment library” (J Med Chem, 2008) are described below.

Experiment [1] has as its target T1, Macrophage metalloelastase (Homo sapiens, UniProt P39900). Description: Inhibition of MMP12 at 500 uM.
Target sequence in this assay (P39900 106-470 limits assumed): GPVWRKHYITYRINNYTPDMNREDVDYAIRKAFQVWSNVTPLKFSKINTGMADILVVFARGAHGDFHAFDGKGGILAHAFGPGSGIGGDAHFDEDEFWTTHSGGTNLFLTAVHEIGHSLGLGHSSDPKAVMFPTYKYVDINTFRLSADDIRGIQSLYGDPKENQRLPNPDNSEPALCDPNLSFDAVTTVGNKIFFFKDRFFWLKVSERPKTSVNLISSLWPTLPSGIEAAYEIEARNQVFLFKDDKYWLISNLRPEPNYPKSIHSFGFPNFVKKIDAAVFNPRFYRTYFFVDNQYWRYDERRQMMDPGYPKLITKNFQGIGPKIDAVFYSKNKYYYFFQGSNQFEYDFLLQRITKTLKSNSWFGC
Experiment [2] concerns the target T1, Macrophage metalloelastase. Briefly: Inhibition of MMP12.
Target sequence in this assay (P39900 whole entry): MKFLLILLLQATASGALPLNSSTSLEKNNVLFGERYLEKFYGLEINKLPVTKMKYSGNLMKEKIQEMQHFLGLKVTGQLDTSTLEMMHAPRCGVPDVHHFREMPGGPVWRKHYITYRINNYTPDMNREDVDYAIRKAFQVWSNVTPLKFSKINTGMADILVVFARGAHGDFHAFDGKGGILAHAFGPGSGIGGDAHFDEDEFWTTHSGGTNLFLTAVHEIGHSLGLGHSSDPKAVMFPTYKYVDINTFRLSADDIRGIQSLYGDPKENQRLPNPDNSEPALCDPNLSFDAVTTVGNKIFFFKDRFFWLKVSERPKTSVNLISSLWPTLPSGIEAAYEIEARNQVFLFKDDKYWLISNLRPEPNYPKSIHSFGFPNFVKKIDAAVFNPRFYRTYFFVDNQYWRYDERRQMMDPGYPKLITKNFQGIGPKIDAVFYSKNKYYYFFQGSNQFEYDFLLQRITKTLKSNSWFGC
Experiment [3] concerns the target T1, Macrophage metalloelastase. Conditions: 0.0025 uM.
Target sequence in this assay (P39900 106-470 limits assumed): as the sequence (P39900 106-470 limits assumed) above
Description: Inhibition of MMP12 at 0.0025 uM

The inhibition is the relative decrease from the control value, in per cent. Lower therefore signals a response near the control. In general, IC50 refers to the midpoint of a concentration-inhibition curve. The low end stands for higher potency, the high end for lower potency.

For `Cc1ccc2c(c1)NC(=O)CO2`, in experiment [1], the inhibition stood at 60%. The same compound showed an IC50 in experiment [2] of 355 µM.
The like results for `COc1ccc2nc[nH]c2c1` were, in that order, 25% and 2000 µM.
In experiment [1], `O=C1NC(=O)C(c2ccccc2)N1` (configuration not stated) displayed an inhibition of 100%. Half-maximal inhibition in experiment [2] (IC50) was put at 0.29 µM.
The like results for `Cn1cc2c(n1)-c1cc(Cl)ccc1SC2` were, in that order, 30% and 1000 µM.
Consider `CNC(=O)[C@H](Cc1c[nH]c2ccccc12)NC(=O)[C@@H](CC(=O)NO)CC(C)C` [ILOMASTAT], for which the IC50 in experiment [2] was determined as 0.001 µM. The compound further registered an inhibition in experiment [3] of 75%.
`Cc1nc(-c2ccc3c(c2)CCC(=O)N3)cs1` displayed an inhibition in experiment [1] of 10%. In experiment [2], this compound displayed an IC50 of 5000 µM.
